Laboratory results published in US11504355B2, “Ergothioneine compositions and methods for maintaining and/or increasing vitamin C levels in cells and organisms” (Mironova Innovations, LLC, priority 2018, dated 2022).

System: Human skin fibroblasts
Test: Ascorbic acid colorimetric assay in human skin fibroblasts, with or without alloxan-induced oxidative stress
Type: cell-based
Protocol: This example provides methods and results from studies evaluating the effect of ergothioneine on vitamin C in human fibroblast cells. Human skin fibroblasts were cultured for 18 hours in T-25 flasks. Cells were incubated with 1) control solution, 2) magnesium ascorbyl phosphate, or 3) magnesium ascorbyl phosphate+ergothioneine (1:100). Cells in each group were then treated for 6 hours with a) control solution or b) 500 μM alloxan to induce oxidative stress. All samples were assayed for ascorbic acid with an ascorbic acid colorimetric assay (Biovision catalog no. K671). Results are provided in the table below, where ascorbic acid content (nmol) in human skin fibroblasts per one million cells is reported.

[1] = 0.158% of test solution, no alloxan
[2] = 0.158% of test solution, with 500 uM Alloxan (6 hours, oxidative stress)
[3] = 0.5% of test solution, no alloxan
[4] = 0.5% of test solution, with 500 uM Alloxan (6 hours, oxidative stress)
[5] = 1.58% of test solution, no alloxan
[6] = 1.58% of test solution, with 500 uM Alloxan (6 hours, oxidative stress)
[7] = 5% of test solution, no alloxan
[8] = 5% of test solution, with 500 uM Alloxan (6 hours, oxidative stress)

## O=C1O[C@H]([C@@H](O)CO)C([O-])=C1OP(=O)([O-])[O-].O=C1O[C@H]([C@@H](O)CO)C([O-])=C1OP(=O)([O-])[O-].[Mg+2].[Mg+2].[Mg+2] [MAP solution, magnesium ascorbyl phosphate]
[1]
  ascorbic acid content in human skin fibroblasts per one million cells, Ave: 10.14 nmol
  ascorbic acid content in human skin fibroblasts per one million cells, Sample A: 9.94 nmol
  ascorbic acid content in human skin fibroblasts per one million cells, Sample B: 10.34 nmol
[2]
  ascorbic acid content in human skin fibroblasts per one million cells, Ave: 4.93 nmol
  ascorbic acid content in human skin fibroblasts per one million cells, Sample A: 4.84 nmol
  ascorbic acid content in human skin fibroblasts per one million cells, Sample B: 5.01 nmol
[3]
  ascorbic acid content in human skin fibroblasts per one million cells, Ave: 21.51 nmol
  ascorbic acid content in human skin fibroblasts per one million cells, Sample A: 21.68 nmol
  ascorbic acid content in human skin fibroblasts per one million cells, Sample B: 21.33 nmol
[4]
  ascorbic acid content in human skin fibroblasts per one million cells, Ave: 9.77 nmol
  ascorbic acid content in human skin fibroblasts per one million cells, Sample A: 9.54 nmol
  ascorbic acid content in human skin fibroblasts per one million cells, Sample B: 9.99 nmol
[5]
  ascorbic acid content in human skin fibroblasts per one million cells, Ave: 49.89 nmol
  ascorbic acid content in human skin fibroblasts per one million cells, Sample A: 49.23 nmol
  ascorbic acid content in human skin fibroblasts per one million cells, Sample B: 50.54 nmol
[6]
  ascorbic acid content in human skin fibroblasts per one million cells, Ave: 12.17 nmol
  ascorbic acid content in human skin fibroblasts per one million cells, Sample A: 11.88 nmol
  ascorbic acid content in human skin fibroblasts per one million cells, Sample B: 12.46 nmol
[7]
  ascorbic acid content in human skin fibroblasts per one million cells, Ave: 50.77 nmol
  ascorbic acid content in human skin fibroblasts per one million cells, Sample A: 50.20 nmol
  ascorbic acid content in human skin fibroblasts per one million cells, Sample B: 51.35 nmol
[8]
  ascorbic acid content in human skin fibroblasts per one million cells, Ave: 13.37 nmol
  ascorbic acid content in human skin fibroblasts per one million cells, Sample A: 13.37 nmol
  ascorbic acid content in human skin fibroblasts per one million cells, Sample B: 13.37 nmol

## C[N+](C)(C)[C@@H](Cc1c[nH]c(=S)[nH]1)C(=O)[O-] [ergothioneine]
1:100 ergothioneine (EGT) to magnesium ascorbyl phosphate (MAP), following oxidative stress
  increase of ascorbic acid levels following oxidative stress: up to 300%
FIG. 1, no oxidative stress
  ascorbic acid absorbed by the fibroblast cells with versus without ergothioneine: equally absorbed
FIG. 3, following oxidative stress
  amount of ascorbic acid in fibroblast cells following oxidative stress in the presence of ergothioneine: synergistically increased
Synergistic amount of ergothioneine, summary of the examples
  boost of vitamin C levels in a cell: three-fold or more
